According to patent US8034768B2, “Composition and method for the treatment of diseases affected by histone deacetylase inhibitors” (Board of Regents, The University of Texas System, priority 2007, dated 2011):
Starred links: 1 amine or outer side, 2 acyl side, 3 side chain; linkers in the order of their positions; H or OH if unused. Positions of bridges follow the written chain, without caps; N, C: chain ends. Non-standard residues stand in square brackets, D forms with d. Residues, ends and D or L forms follow the SMILES beside them. 1Nal = N[C@@H](Cc1cccc2ccccc12)C(=O)O; 2Nal = N[C@@H](Cc1ccc2ccccc2c1)C(=O)O; Cysteamide = C(CS[*:3])N[*:1]

What was measured:
[1] = tested on: 3 prostate and 3 bladder cancer cells; assay: MTT cell proliferation assay on a variety of cancer cells (FIG. 10); type: cell-based, human
Experimental: (§1) To evaluate anti-tumoral activity of the modified FK228 analogues, human transitional carcinoma cell lines T24, TCCSUP, 253J and human prostate cancer cell lines PC-3, LNCaP, Du-145 were cultured in T medium (Invitrogen) supplemented with 5% fetal bovine serum and 1% penicillin-streptomycin. 2×10^3 Cells in 50 μL of medium were plated into each well of a 96-well plate one day before adding compound. Each compound was diluted with DMSO to two folds of the concentrations, then 50 μL of the compound-containing medium was added into cells. Each treatment was in triplicate. Three days later, cell proliferation was measured with a cell proliferation kit (Roche). Briefly, 10 μL of MTT (3-[4,5-dimethylthiazol-2-yl]-2,5-diphenyl tetrazolium bromide) was added into each well for 4 hours, then 100 μL of the solubilization solution was added and cells were incubated for overnight. The spectrophotometrical absorbance of the samples was measured with a SpectraMax M5 plate reader (Molecular Devices) at 565 nm. The data were presented as percentage inhibition using non-treated cells as control.
FIGS. 9-11 are graphs showing dose-dependent growth inhibition of cancer cells (prostate and bladder cancers) by modified FK228 analogues. […] FIG. 10 includes the general structure in FIG. 10A including R groups. […]

prostate cancer cells = type: cell-based, human
Experimental: as §1
FIGS. 9-11 are graphs showing dose-dependent growth inhibition of cancer cells (prostate and bladder cancers) by modified FK228 analogues. […] FIG. 10 includes the general structure in FIG. 10A including R groups. The R groups are defined in FIG. 10B and growth inhibition for the specific composition depicted in FIG. 10B are shown in FIG. 10C. […] Similarly, FIG. 11 includes the general structure in FIG. 1A including R groups. The R groups are defined in FIG. 1B and growth inhibition for the specific composition depicted in FIG. 10B are shown in FIG. 1C. […] FIG. 11A is a structure of the modified FK228 analogues and the side chain functional groups of the structure in FIG. 11A is shown in FIG. 11B. FIG. 11C is a graph of the activity as a function of side chain seen in FIG. 11B.

K562 cells = assay: Cell viability of K562 cells treated for γ-globin expression study; type: cell-based; details: about 48 hours, about 0.3 μM
Experimental: The synthesized modified FK228 analogues of the present invention were assessed to examine their capability to induce γ-globin expression. K562 cells were treated with the synthesized modified FK228 analogues at various concentrations (e.g., between about 0.01 nM and about 10 μM) for about 48 hours and expression of γ-globin was determined by real-time PCR as well as checking cell viability.

| SMILES | cytotoxicity on a variety of cancer cells [1] | GI50 (prostate cancer cells) [nM] | cell viability (K562 cells) |
| --- | --- | --- | --- |
| CC(C)[C@H]1NC(=O)C[C@@H]2NC(=O)[C@H](Cc3ccccc3)NC(=O)[C@H](Cc3ccccc3)NC(=O)[C@@H](CSSCCNC2=O)NC1=O [JMA26] ([dV][dC]FFD-Cysteamide; disulfide 2-C; lactam N-5) | high cytotoxicity | 460 | – |
| CC(C)[C@H]1NC(=O)C[C@@H]2NC(=O)[C@H](Cc3ccc4ccccc4c3)NC(=O)[C@H](Cc3ccc4ccccc4c3)NC(=O)[C@@H](CSSCCNC2=O)NC1=O [JMA33] ([dV][dC][2Nal][2Nal]D-Cysteamide; disulfide 2-C; lactam N-5) | – | 33 | – |
| CC(C)[C@H]1NC(=O)C[C@@H]2NC(=O)[C@H](Cc3ccccc3)NC(=O)[C@H](Cc3ccc4ccccc4c3)NC(=O)[C@@H](CSSCCNC2=O)NC1=O [JMA46] ([dV][dC][2Nal]FD-Cysteamide; disulfide 2-C; lactam N-5) | – | 170 | – |
| CC(C)[C@H]1NC(=O)C[C@@H]2NC(=O)[C@H](Cc3cccc4ccccc34)NC(=O)[C@H](Cc3cccc4ccccc34)NC(=O)[C@@H](CSSCCNC2=O)NC1=O [JMA47] ([dV][dC][1Nal][1Nal]D-Cysteamide; disulfide 2-C; lactam N-5) | – | 47 | – |
| CC(/C=C/C(=O)NO)=C\[C@@H](C)C(=O)c1ccc(N(C)C)cc1 [TSA, Trichostatin A] | – | – | 30-40% |
